{
  "source": "patent US9921215B2",
  "about": "“Method for detecting ligand using FRET biosensor” (KOREA RESEARCH INSTITUTE OF BIOSCIENCE AND BIOTECHNOLOGY, priority 2009, dated 2018)",
  "molecules": {"B1": {"name": "ARBP: E. coli periplasmic arabinose-binding protein (protein, UniProt P02924 24-329, looked up)", "L-arabinose-binding …": "ENLKLGFLVKQPEEPWFQTEWKFADKAGKDLGFEVIKIAVPDGEKTLNAIDSLAASGAKGFVICTPDPKLGSAIVAKARGYDMKVIAVDDQFVNAKGKPMDTVPLVMMAATKIGERQGQELYKEMQKRGWDVKESAVMAITANELDTARRRTTGSMDALKAAGFPEKQIYQVPTKSNDIPGAFDAANSMLVQHPEVKHWLIVGMNDSTVLGGVRATEGQGFKAADIIGIGINGVDAVSELSKAQATGFYGSLLPSPDVHGYKSSEMLYNWVAKDVEPPKFTEVTDVVLITRDNFKEELEKKGLGGK"}},
  "key": {"[1]": {"target": "T1, CaraFY-PR arabinose FRET biosensor: fusion protein ECFP-ARBP-EYFP of E. coli MG1655 ARBP (arabinose-binding protein) (Escherichia coli, UniProt P02924)", "test": "Ligand titration of FRET biosensor CaraFY-PR (arabinose sensor) at its critical temperature", "design": "6xHis (C); made in house; host or cells: E. coli", "source_text": "Likewise, in order to construct an expression vector of CaraFY-PR, a biosensor for measuring arabinose, ECFP gene was amplified by PCR using primers of SEQ ID NOs: 3 and 10, and ARBP gene was amplified by PCR using a chromosomal DNA, extracted from E. coli MG1655, as a template, and primers of SEQ ID NOs: 11 and 12.\nThe amplified ECFP and ARBP genes were amplified by PCR using primers of SEQ ID NOs: 3 and 12, thus obtaining a synthetic gene of ECFP-ARBP. The ECFP-ARBP gene was inserted into the ECFP-MBP gene position of the pECMY-BII expression vector, thereby constructing a pECaraFY-PR vector.\n(§1) The fluorescence of the FRET biosensors was measured using the fluorescence analysis system Cary Eclipse (Varian Inc., Mulgrave, Australia) under the conditions in which the proteins of each biosensor were controlled to the same concentration of 0.5 μM in 0.5 ml of PBS buffer (pH 7.4). […]\n(§2) Also, Δratio that defines the detection capability of the FRET biosensor was determined according to the following equation 4: Δratio=ratiomax−ratiomin [Equation 4]\n(§3) The titration curves of the FRET biosensors were expressed as Sigmoidal curves using the 4-parameter Hill equation of Sigmaplot 10.0 (Systat software Inc., USA) based on changes in the ratio measured while increasing the ligand concentration from 1 nM to 10 mM. […]"}, "[2]": {"target": "T1, CaraFY-PR arabinose FRET biosensor: fusion protein ECFP-ARBP-EYFP of E. coli MG1655 ARBP (arabinose-binding protein)", "test": "Specificity of the arabinose FRET biosensor for various sugars", "conditions": "critical temperature 49 °C; ligand 100 μM, 1 mM, 10 mM", "method": "(§4) Analysis of the specificities of the FRET biosensors for various ligands was performed using 19 kinds of sugars, including monosaccharides, polyscaccharides and sugar alcohols.\n(§5) To measure the specificities of the sensors, each of the purified FRET biosensors was added to 0.5 ml of PBS buffer (pH 7.4) at a concentration of 0.5 μM such that the concentration of each ligand reached 100 μM, 1 mM, 10 mM, etc. In 3 minutes after the peltier device surrounding the cuvette has reached each of the critical temperatures determined in Example 3, fluorescence was measured."}, "[3]": {"target": "T2, CmglBY-SS glucose FRET biosensor: fusion protein ECFP-GGBP-EYFP of E. coli MG1655 GGBP (galactose/glucose-binding protein) (Escherichia coli, UniProt P0AEE5)", "test": "Specificity of the glucose FRET biosensor for various sugars", "conditions": "critical temperature 50 °C; ligand 100 μM, 1 mM, 10 mM", "method": "as §4, §5"}, "[4]": {"target": "T2, CmglBY-SS glucose FRET biosensor: fusion protein ECFP-GGBP-EYFP of E. coli MG1655 GGBP (galactose/glucose-binding protein)", "test": "Ligand titration of FRET biosensor CmglBY-SS (glucose sensor) at its critical temperature", "design": "6xHis (C); made in house; host or cells: E. coli", "source_text": "In addition, an expression vector of CmglBY-SS, a biosensor for measuring glucose used in the present invention, was constructed in the following manner.\nFirst, ECFP gene was amplified by PCR using a pECFP vector as a template and a forward primer of SEQ ID NO: 3 together with a reverse primer of SEQ ID NO: 13 prepared to overlap with the nucleotide sequence of the N-terminus of GGBP. Likewise, GGBP gene was amplified by PCR using a chromosomal DNA, extracted from E. coli MG1655, as a template, and a forward primer of SEQ ID NO: 14 together with a reverse primer of SEQ ID NO: 15 containing a BamHI restriction sequence. […]\nas §1, §2, §3"}, "[5]": {"target": "CalsBY-QV allose FRET biosensor: fusion protein ECFP-ALBP-EYFP of E. coli MG1655 ALBP (allose-binding protein) (Escherichia coli, UniProt P39265)", "sequence (P39265 24-311)": "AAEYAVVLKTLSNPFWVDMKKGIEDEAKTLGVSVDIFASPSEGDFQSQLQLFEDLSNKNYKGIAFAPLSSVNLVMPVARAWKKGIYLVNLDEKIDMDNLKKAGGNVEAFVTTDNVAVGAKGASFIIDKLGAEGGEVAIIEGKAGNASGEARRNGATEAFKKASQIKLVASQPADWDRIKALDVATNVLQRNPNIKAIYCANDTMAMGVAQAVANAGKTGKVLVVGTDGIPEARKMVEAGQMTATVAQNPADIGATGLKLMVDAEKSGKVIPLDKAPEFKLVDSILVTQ", "test": "Specificity of the allose FRET biosensor for various sugars", "conditions": "critical temperature 49 °C; ligand 100 μM, 1 mM, 10 mM; ribose compared with measurement at 25 °C in U.S. Pat. No. 7,432,353", "method": "as §4, §5"}, "[6]": {"conditions": "cited from earlier work"}},
  "data": [
    {"molecule": "OC1OC[C@H](O)[C@H](O)[C@H]1O", "note": "(stereo partly shown) [arabinose]", "values": [
      {"measurement": "Kd", "setting": "[1]", "result": "67 ± 4", "unit": "µM"}
    ]},
    {"molecule": "OC[C@H]1OC(O)[C@H](O)[C@@H](O)[C@H]1O", "note": "(stereo partly shown) [galactose]", "values": [
      {"measurement": "affinity", "setting": "[2]", "result": "very high affinity"},
      {"measurement": "affinity", "setting": "[3]", "result": "very high affinity"}
    ]},
    {"molecule": "OC[C@H]1OC(O)[C@H](O)[C@@H](O)[C@@H]1O", "note": "(stereo partly shown) [glucose]", "values": [
      {"measurement": "Kd", "setting": "[4]", "result": "9.2 ± 0.5", "unit": "µM"}
    ]},
    {"molecule": "OC1OC[C@@H](O)[C@@H](O)[C@H]1O", "note": "(stereo partly shown) [ribose]", "values": [
      {"measurement": "specificity for other sugars", "setting": "[5]", "result": "reduced specificity"}
    ]},
    {"molecule": "B1", "values": [
      {"measurement": "Unfolding temperature in the presence of ligand", "setting": "[6]; 1 mM arabinose (ARBP) / glucose (GGBP)", "result": 59, "unit": "°C"},
      {"measurement": "Unfolding temperature in the absence of ligand", "setting": "[6]; no arabinose (ARBP) / no glucose (GGBP)", "result": 53.5, "unit": "°C"}
    ]}
  ]
}
